Blank lines part the entries; values can stand above or below the molecule they belong to.
How the values were obtained:
[1] = system: KRAS G12D protein/effector signaling in GP2d cells; test: Cell-based pERK HTRF assay in GP2d cell; details: 1 h, 60 min incubation
Summary of the method: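 GP2d cells (DMEM, 10% FBS) exposed 60 min to a 9-point half-log compound series at 0.25% DMSO, then lysed. Phospho-ERK quantified by HTRF with d2/Eu cryptate antibodies after 4–24 h at room temperature, ex 320/em 615 nm.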

[2] = target: T1, Avi-KRAS G12D (1-169) GppNHp/RAF1 RBD-3×FLAG (52-151) (Homo sapiens, UniProt P01116, G12D); test: Disrupting RAS-effector binding HTRF assay, Raf1 RBD-KRAS G12D-GppNHp; details: PPI HTRF, 50 nM Avi-KRAS G12D GppNHp, compound titration 30-0.0045 μM; read-out: Raf1 RBD-KRAS G12D-GppNHp disruption
T1 construct: 50 nM Avi-KRAS G12D (1-169) GppNHp/RAF1 RBD-3×FLAG (52-151)

[3] = target: T2, Avi-KRAS WT (1-169) GppNHp/RAF1 RBD-3×FLAG (52-151) (Homo sapiens, UniProt P01116); test: Disrupting RAS-effector binding HTRF assay, Raf1 RBD-KRAS WT-GppNHp; details: PPI HTRF, 50 nM Avi-KRAS WT GppNHp, compound titration 30-0.0045 μM; read-out: Raf1 RBD-KRAS WT-GppNHp disruption
T2 construct: 50 nM Avi-KRAS WT (1-169) GppNHp/RAF1 RBD-3×FLAG (52-151)

[4] = target: T3, Avi-KRAS G12V (1-169) GppNHp/RAF1 RBD-3×FLAG (52-151) (Homo sapiens, UniProt P01116, G12V); test: Disrupting RAS-effector binding HTRF assay, Raf1 RBD-KRAS G12V-GppNHp; details: PPI HTRF, 50 nM Avi-KRAS G12V GppNHp, compound titration 30-0.0045 μM; read-out: Raf1 RBD-KRAS G12V-GppNHp disruption
T3 construct: 50 nM Avi-KRAS G12V (1-169) GppNHp/RAF1 RBD-3×FLAG (52-151)

[5] = target: T4, Avi-KRAS G12R (1-169) GppNHp/RAF1 RBD-3×FLAG (52-151) (Homo sapiens, UniProt P01116, G12R); test: Disrupting RAS-effector binding HTRF assay, Raf1 RBD-KRAS G12R-GppNHp; details: PPI HTRF, 50 nM Avi-KRAS G12R GppNHp, compound titration 30-0.0045 μM; read-out: Raf1 RBD-KRAS G12R-GppNHp disruption
T4 construct: 50 nM Avi-KRAS G12R (1-169) GppNHp/RAF1 RBD-3×FLAG (52-151)

[6] = system: KRAS G12V protein/effector signaling in SW620 cells; test: Cell-based pERK HTRF assay in SW620 cell; details: Homo sapiens, SW-620, 1 h incubation
Description: pERK assay (Perkin Elmer) was used to determine the effectiveness of compounds in disrupting KRAS G12V protein/effector signaling in cells.
On Day 1, cells (SW620) were seeded into 96-well plates at 3×10^4 cells/well in 80 μL complete growth media (DMEM, 10% FBS).
On Day 2, cells were treated with compounds at 0.25% DMSO. The source plate was created with compounds diluted in media at 5-fold the final assay concentration. The compounds were run in a 9-point concentration curve starting at 10 μM, with a half-log dilution between concentrations. 20 μL was transferred onto the cell plates (final volume in wells was 100 μL). Plates were harvested after 1 h incubation by aspirating media and adding kit-supplied 1× supplemented lysis buffer to all wells (50 μL per well). Plates were then placed on a plate shaker and incubated at 850 rpm for an additional 30 min.
Antibody mixture solution was prepared by diluting aliquoted d2 and Eu Cryptate antibodies 1:20 in kit supplied detection buffer, and mixing the diluted antibodies solutions (1:1 v:v). Four μL of this solution was then added to a 384-well detection plate (Perkin Elmer; 6008230).
Samples were homogenized by pipetting up and down and then transferred (16 μL of cell lysates) from the 96-well cell culture plate to two wells of the HTRF 384-well detection plate containing the antibody solution. Plates were centrifuged (524 g for 1 min) and allowed to incubate between 4 and 24 h at room temperature. Maximum signal was reached after 4 h incubation time and remained stable over a period of 24 hours. Therefore, readings could be made between 4 and 24 h of incubation. Plates were centrifuged again (524 g for 1 min), then analyzed on the EnVision plate reader using the following settings: Excitation 320 nm, Bandwidth 75 nm; Emission 615 nm, Bandwidth 85 nm; Gain 100%; Flashes 100; Lag 60 μs.

T4 sequence (P01116 1-169 isoform P01116-2 G12R limits assumed): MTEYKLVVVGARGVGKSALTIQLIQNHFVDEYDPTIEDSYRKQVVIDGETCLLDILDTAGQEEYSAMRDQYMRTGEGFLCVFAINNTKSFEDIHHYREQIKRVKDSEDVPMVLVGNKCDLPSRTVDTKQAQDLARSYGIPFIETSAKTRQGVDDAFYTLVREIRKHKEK
T2 sequence (P01116 1-169 isoform P01116-2 limits assumed): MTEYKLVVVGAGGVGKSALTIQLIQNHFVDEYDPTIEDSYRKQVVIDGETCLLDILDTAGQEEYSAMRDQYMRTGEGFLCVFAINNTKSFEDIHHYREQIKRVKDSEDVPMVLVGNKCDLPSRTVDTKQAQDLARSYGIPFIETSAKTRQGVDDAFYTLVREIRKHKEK
T3 sequence (P01116 1-169 isoform P01116-2 G12V limits assumed): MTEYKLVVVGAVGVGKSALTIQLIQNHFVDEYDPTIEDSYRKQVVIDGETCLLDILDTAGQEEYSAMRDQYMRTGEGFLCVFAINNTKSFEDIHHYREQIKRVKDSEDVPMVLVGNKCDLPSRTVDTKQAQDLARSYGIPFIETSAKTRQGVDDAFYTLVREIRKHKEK
T1 sequence (P01116 1-169 isoform P01116-2 G12D limits assumed): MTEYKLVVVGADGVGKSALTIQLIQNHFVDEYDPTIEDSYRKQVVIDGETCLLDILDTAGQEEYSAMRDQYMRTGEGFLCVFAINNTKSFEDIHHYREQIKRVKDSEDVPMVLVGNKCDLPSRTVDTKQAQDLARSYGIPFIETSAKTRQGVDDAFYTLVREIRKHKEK

SMILES: N#Cc1c(N)sc2c(F)ccc(-c3c(C(F)(F)F)cc4c(N5CC6CCC(C5)N6)nc(OCCc5ccon5)nc4c3F)c12 [Compound 42]
IC50 [1]: ≤ 0.1 µM | IC50 [2]: 0.1 to 1 µM | IC50 [3]: 1 to 10 µM | IC50 [4]: > 10 µM | IC50 [5]: 1 to 10 µM | IC50 [6]: > 10 µM

SMILES: N#Cc1c(N)sc2c(F)ccc(-c3c(C(F)(F)F)cc4c(N5CC6CCC(C5)N6)nc(O)nc4c3F)c12 [Compound 43]
IC50 [1]: > 1 µM | IC50 [2]: > 10 µM | IC50 [3]: > 10 µM | IC50 [4]: > 10 µM | IC50 [5]: > 10 µM | IC50 [6]: > 10 µM

SMILES: N#CCCOc1nc(N2CC3CCC(C2)N3)c2cc(C(F)(F)F)c(-c3ccc(F)c4sc(N)c(C#N)c34)c(F)c2n1 [Compound 44]
IC50 [1]: ≤ 0.1 µM | IC50 [2]: 1 to 10 µM | IC50 [3]: 1 to 10 µM | IC50 [4]: > 10 µM | IC50 [5]: > 10 µM | IC50 [6]: > 10 µM

SMILES: N#Cc1c(N)sc2c(F)ccc(-c3c(C(F)(F)F)cc4c(N5CC6CCC(C5)N6)nc(OCC5CCCO5)nc4c3F)c12 (stereo not drawn) [Compound 45]
IC50 [1]: ≤ 0.1 µM | IC50 [2]: 0.1 to 1 µM | IC50 [3]: 1 to 10 µM | IC50 [4]: 1 to 10 µM | IC50 [5]: 1 to 10 µM | IC50 [6]: > 10 µM

SMILES: N#Cc1c(N)sc2c(F)ccc(-c3c(C(F)(F)F)cc4c(N5CC6CCC(C5)N6)nc(OCCC5CCOCC5)nc4c3F)c12 [Compound 46]
IC50 [1]: ≤ 0.1 µM | IC50 [2]: 0.1 to 1 µM | IC50 [3]: 1 to 10 µM | IC50 [4]: > 10 µM | IC50 [5]: > 10 µM | IC50 [6]: > 10 µM

SMILES: N#Cc1c(N)sc2c(F)ccc(-c3c(C(F)(F)F)cc4c(N5CC6CCC(C5)N6)nc(OCC5CCOC5)nc4c3F)c12 (stereo not drawn) [Compound 47]
IC50 [1]: ≤ 0.1 µM | IC50 [2]: 0.1 to 1 µM | IC50 [3]: 1 to 10 µM | IC50 [4]: > 10 µM | IC50 [5]: > 10 µM | IC50 [6]: > 10 µM

SMILES: N#Cc1c(N)sc2c(F)ccc(-c3c(C(F)(F)F)cc4c(N5CC6CCC(C5)N6)nc(OCC5CCCOC5)nc4c3F)c12 (stereo not drawn) [Compound 48]
IC50 [1]: ≤ 0.1 µM | IC50 [2]: 1 to 10 µM | IC50 [3]: 1 to 10 µM | IC50 [4]: > 10 µM | IC50 [5]: > 10 µM | IC50 [6]: > 10 µM

SMILES: N#Cc1c(N)sc2c(F)ccc(-c3c(C(F)(F)F)cc4c(N5CC6CCC(C5)N6)nc(OCC5CCCCO5)nc4c3F)c12 (stereo not drawn) [Compound 49]
IC50 [1]: ≤ 0.1 µM | IC50 [2]: 1 to 10 µM | IC50 [3]: 1 to 10 µM | IC50 [4]: > 10 µM | IC50 [5]: > 10 µM | IC50 [6]: > 10 µM

SMILES: N#Cc1c(N)sc2c(F)ccc(-c3c(C(F)(F)F)cc4c(N5CC6CCC(C5)N6)nc(OCCC5CCOC5)nc4c3F)c12 (stereo not drawn) [Compound 50]
IC50 [1]: ≤ 0.1 µM | IC50 [2]: 0.1 to 1 µM | IC50 [3]: 1 to 10 µM | IC50 [4]: > 10 µM | IC50 [5]: > 10 µM | IC50 [6]: > 10 µM

SMILES: N#Cc1c(N)sc2c(F)ccc(-c3c(C(F)(F)F)cc4c(N5CC6CCC(C5)N6)nc(OCCC5CCCO5)nc4c3F)c12 (stereo not drawn) [Compound 51]
IC50 [1]: ≤ 0.1 µM | IC50 [2]: 0.1 to 1 µM | IC50 [3]: 1 to 10 µM | IC50 [4]: > 10 µM | IC50 [5]: > 10 µM | IC50 [6]: > 10 µM

SMILES: N#Cc1c(N)sc2c(F)ccc(-c3c(C(F)(F)F)cc4c(N5CC6CCC(C5)N6)nc(OCC5CC6CCC(C5)O6)nc4c3F)c12 (stereo not drawn) [Compound 52]
IC50 [1]: ≤ 0.1 µM | IC50 [2]: 1 to 10 µM | IC50 [3]: 1 to 10 µM | IC50 [4]: > 10 µM | IC50 [5]: > 10 µM | IC50 [6]: > 10 µM

SMILES: N#Cc1c(N)sc2c(F)ccc(-c3c(C(F)(F)F)cc4c(N5CC6CCC(C5)N6)nc(OCC5CCS(=O)(=O)CC5)nc4c3F)c12 [Compound 53]
IC50 [1]: ≤ 0.1 µM | IC50 [2]: 0.1 to 1 µM | IC50 [3]: 0.1 to 1 µM | IC50 [4]: 1 to 10 µM | IC50 [5]: > 10 µM | IC50 [6]: > 10 µM

SMILES: CN1C(=O)CC[C@H]1COc1nc(N2CC3CCC(C2)N3)c2cc(C(F)(F)F)c(-c3ccc(F)c4sc(N)c(C#N)c34)c(F)c2n1 [Compound 54]
IC50 [1]: ≤ 0.1 µM | IC50 [2]: 0.1 to 1 µM | IC50 [3]: 1 to 10 µM | IC50 [4]: > 10 µM | IC50 [5]: > 10 µM | IC50 [6]: > 10 µM

SMILES: CN1CCC(COc2nc(N3CC4CCC(C3)N4)c3cc(C(F)(F)F)c(-c4ccc(F)c5sc(N)c(C#N)c45)c(F)c3n2)C1=O (stereo not drawn) [Compound 55]
IC50 [1]: ≤ 0.1 µM | IC50 [2]: 0.1 to 1 µM | IC50 [3]: 0.1 to 1 µM | IC50 [4]: 1 to 10 µM | IC50 [5]: 1 to 10 µM | IC50 [6]: > 10 µM

SMILES: CN1C[C@@H](COc2nc(N3CC4CCC(C3)N4)c3cc(C(F)(F)F)c(-c4ccc(F)c5sc(N)c(C#N)c45)c(F)c3n2)CC1=O [Compound 56]
IC50 [1]: ≤ 0.1 µM | IC50 [2]: 0.1 to 1 µM | IC50 [3]: 0.1 to 1 µM | IC50 [4]: 1 to 10 µM | IC50 [5]: 1 to 10 µM | IC50 [6]: > 10 µM

SMILES: CN1C(=O)CC[C@@H]1COc1nc(N2CC3CCC(C2)N3)c2cc(C(F)(F)F)c(-c3ccc(F)c4sc(N)c(C#N)c34)c(F)c2n1 [Compound 57]
IC50 [1]: ≤ 0.1 µM | IC50 [2]: 0.1 to 1 µM | IC50 [3]: 1 to 10 µM | IC50 [4]: > 10 µM | IC50 [5]: > 10 µM | IC50 [6]: > 10 µM

IC50 [1]: > 1 µM | IC50 [2]: 1 to 10 µM | IC50 [3]: > 10 µM | IC50 [4]: > 10 µM | IC50 [5]: > 10 µM | IC50 [6]: > 10 µM
SMILES: CN(c1nc(OCC2CCOCC2)nc2c(F)c(-c3ccc(F)c4sc(N)c(C#N)c34)c(C(F)(F)F)cc12)C1CCNCC1 [Compound 61]

IC50 [1]: > 1 µM | IC50 [2]: 1 to 10 µM | IC50 [3]: > 10 µM | IC50 [4]: > 10 µM | IC50 [5]: > 10 µM | IC50 [6]: > 10 µM
SMILES: CN(c1nc(OCC2CCOCC2)nc2c(F)c(-c3ccc(F)c4sc(N)c(C#N)c34)c(C(F)(F)F)cc12)[C@@H]1CCCNC1 [Compound 62]

IC50 [1]: > 1 µM | IC50 [2]: > 10 µM | IC50 [3]: > 10 µM | IC50 [4]: > 10 µM | IC50 [5]: > 10 µM | IC50 [6]: > 10 µM
SMILES: CN(c1nc(OCC2CCOCC2)nc2c(F)c(-c3ccc(F)c4sc(N)c(C#N)c34)c(C(F)(F)F)cc12)[C@H]1CCCNC1 [Compound 63]

SMILES: N#Cc1c(N)sc2c(F)ccc(-c3c(C(F)(F)F)cc4c(N5CC6CCC(C5)N6)nc(OCCc5cnoc5)nc4c3F)c12 [Compound 65]
IC50 [1]: ≤ 0.1 µM | IC50 [2]: 0.1 to 1 µM | IC50 [3]: 1 to 10 µM | IC50 [4]: > 10 µM | IC50 [5]: > 10 µM | IC50 [6]: > 10 µM

— patent publication US20260035376A1, “COMPOSITIONS AND METHODS FOR INHIBITION OF RAS” (TheRas, Inc., priority 2022, published 2026)
